# Data as given in PubChem BioAssay AID1963968 (Molecular Pharmacology Branch, DTP, NCI, 2024).
# Test system: 945468-187-T-J3-PDC spheroids with HUVEC/MSC, viability
# Assay: Anticancer human tumor 945468-187-T-J3-PDC patient-derived rectal carcinoma cell line growth inhibition [PI3K]
# Settings: for IC50: curve of first compound; for viability, T/C: stronger effect = lower value
# Summary of the method: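 Tumor cells grown as multi-cell spheroids with HUVEC endothelial cells and MSC fibroblast-like stroma were treated with targeted agents combined with inavolisib, alpelisib, duvelisib or copanlisib. Doses fell in half-log steps from near clinical Cmax, else from 10 microM. Viability was measured.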
# [1] = second compound 0.00316 µM, first compound 0.0316 µM
# [2] = second compound 0.00316 µM, first compound 0.1 µM
# [3] = second compound 0.00316 µM, first compound 0.316 µM
# [4] = second compound 0.00316 µM, first compound 1 µM
# [5] = second compound 0.00316 µM, first compound 3.16 µM
# [6] = second compound 0.00316 µM, first compound 10 µM
# [7] = second compound 0.01 µM, first compound 0.0316 µM
# [8] = second compound 0.01 µM, first compound 0.1 µM
# [9] = second compound 0.01 µM, first compound 0.316 µM
# [10] = second compound 0.01 µM, first compound 1 µM
# [11] = second compound 0.01 µM, first compound 3.16 µM
# [12] = second compound 0.01 µM, first compound 10 µM
# [13] = second compound 0.0316 µM, first compound 0.0316 µM
# [14] = second compound 0.0316 µM, first compound 0.1 µM
# [15] = second compound 0.0316 µM, first compound 0.316 µM
# [16] = second compound 0.0316 µM, first compound 1 µM
# [17] = second compound 0.0316 µM, first compound 3.16 µM
# [18] = second compound 0.0316 µM, first compound 10 µM
# [19] = second compound 0.1 µM, first compound 0.0316 µM
# [20] = second compound 0.1 µM, first compound 0.1 µM
# [21] = second compound 0.1 µM, first compound 0.316 µM
# [22] = second compound 0.1 µM, first compound 1 µM
# [23] = second compound 0.1 µM, first compound 3.16 µM
# [24] = second compound 0.1 µM, first compound 10 µM
# [25] = second compound 0.316 µM, first compound 0.0316 µM
# [26] = second compound 0.316 µM, first compound 0.1 µM
# [27] = second compound 0.316 µM, first compound 0.316 µM
# [28] = second compound 0.316 µM, first compound 1 µM
# [29] = second compound 0.316 µM, first compound 3.16 µM
# [30] = second compound 0.316 µM, first compound 10 µM
# [31] = second compound 1 µM, first compound 0.0316 µM
# [32] = second compound 1 µM, first compound 0.1 µM
# [33] = second compound 1 µM, first compound 0.316 µM
# [34] = second compound 1 µM, first compound 1 µM
# [35] = second compound 1 µM, first compound 3.16 µM
# [36] = second compound 1 µM, first compound 10 µM
# 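Further: spheroids exposed to agents for 7 days before viability read.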
# 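Wherever viability, T/C is given: 100% = DMSO vehicle control viability.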
structure (smiles),measurement,setting,value
C#Cc1c(F)ccc2cc(O)cc(-c3ncc4c(N5CC6CCC(C5)N6)nc(OCC56CCCN5CC(F)C6)nc4c3F)c12 (stereo not given) + COc1c(OCCCN2CCOCC2)ccc2c3n(c(=NC(=O)c4cnc(N)nc4)nc12)CCN3,IC50,second compound 0.00316 µM,> 10000 nM
same,IC50,second compound 0.01 µM,> 10000 nM
same,IC50,second compound 0.0316 µM,> 10000 nM
same,IC50,second compound 0.1 µM,< 31.6 nM
same,IC50,second compound 0.316 µM,< 31.6 nM
same,IC50,second compound 1 µM,< 31.6 nM
same,"viability, T/C",[1],102%
same,"viability, T/C",[2],95.9%
same,"viability, T/C",[3],98.6%
same,"viability, T/C",[4],94.2%
same,"viability, T/C",[5],108%
same,"viability, T/C",[6],117%
same,"viability, T/C",[7],98.1%
same,"viability, T/C",[8],97.2%
same,"viability, T/C",[9],96.6%
same,"viability, T/C",[10],89%
same,"viability, T/C",[11],104%
same,"viability, T/C",[12],98%
same,"viability, T/C",[13],79.6%
same,"viability, T/C",[14],88.2%
same,"viability, T/C",[15],91.3%
same,"viability, T/C",[16],87.2%
same,"viability, T/C",[17],69.9%
same,"viability, T/C",[18],57.6%
same,"viability, T/C",[19],37.4%
same,"viability, T/C",[20],42.2%
same,"viability, T/C",[21],46.3%
same,"viability, T/C",[22],39%
same,"viability, T/C",[23],34.7%
same,"viability, T/C",[24],18.5%
same,"viability, T/C",[25],22.8%
same,"viability, T/C",[26],22.4%
same,"viability, T/C",[27],21.6%
same,"viability, T/C",[28],13.1%
same,"viability, T/C",[29],17.2%
same,"viability, T/C",[30],5.33%
same,"viability, T/C",[31],16.2%
same,"viability, T/C",[32],14.6%
same,"viability, T/C",[33],14.8%
same,"viability, T/C",[34],9.87%
same,"viability, T/C",[35],6.91%
same,"viability, T/C",[36],3.67%
C=CC(=O)N1CCN(c2nc(=O)n(-c3c(C)ccnc3C(C)C)c3nc(-c4c(O)cccc4F)c(F)cc23)C(C)C1 (stereo not given) + COc1c(OCCCN2CCOCC2)ccc2c3n(c(=NC(=O)c4cnc(N)nc4)nc12)CCN3,IC50,second compound 0.00316 µM,> 10000 nM
same,IC50,second compound 0.01 µM,> 10000 nM
same,IC50,second compound 0.0316 µM,> 10000 nM
same,IC50,second compound 0.1 µM,< 31.6 nM
same,IC50,second compound 0.316 µM,< 31.6 nM
same,IC50,second compound 1 µM,< 31.6 nM
same,"viability, T/C",[1],97.2%
same,"viability, T/C",[2],109%
same,"viability, T/C",[3],125%
same,"viability, T/C",[4],89.9%
same,"viability, T/C",[5],95.8%
same,"viability, T/C",[6],99.4%
same,"viability, T/C",[7],105%
same,"viability, T/C",[8],90%
same,"viability, T/C",[9],94.1%
same,"viability, T/C",[10],97.5%
same,"viability, T/C",[11],101%
same,"viability, T/C",[12],92.4%
same,"viability, T/C",[13],95.4%
same,"viability, T/C",[14],86.7%
same,"viability, T/C",[15],86.6%
same,"viability, T/C",[16],88.2%
same,"viability, T/C",[17],95.1%
same,"viability, T/C",[18],96.9%
same,"viability, T/C",[19],49.2%
same,"viability, T/C",[20],48.2%
same,"viability, T/C",[21],57.6%
same,"viability, T/C",[22],62%
same,"viability, T/C",[23],75.2%
same,"viability, T/C",[24],74.3%
same,"viability, T/C",[25],20.3%
same,"viability, T/C",[26],20.9%
same,"viability, T/C",[27],21.1%
same,"viability, T/C",[28],22.6%
same,"viability, T/C",[29],22.9%
same,"viability, T/C",[30],28.9%
same,"viability, T/C",[31],17%
same,"viability, T/C",[32],18.3%
same,"viability, T/C",[33],14.3%
same,"viability, T/C",[34],15.5%
same,"viability, T/C",[35],17.5%
same,"viability, T/C",[36],19%
CC(Cn1ccc(-c2ccc(C#N)c(Cl)c2)n1)NC(=O)c1cc(C(C)O)[nH]n1 (stereo not given) + COc1c(OCCCN2CCOCC2)ccc2c3n(c(=NC(=O)c4cnc(N)nc4)nc12)CCN3,IC50,second compound 0.00316 µM,> 10000 nM
same,IC50,second compound 0.01 µM,> 10000 nM
same,IC50,second compound 0.0316 µM,> 10000 nM
same,IC50,second compound 0.1 µM,< 31.6 nM
same,IC50,second compound 0.316 µM,< 31.6 nM
same,IC50,second compound 1 µM,< 31.6 nM
same,"viability, T/C",[1],96.6%
same,"viability, T/C",[2],92.7%
same,"viability, T/C",[3],95.7%
same,"viability, T/C",[4],88.5%
same,"viability, T/C",[5],93.9%
same,"viability, T/C",[6],92.3%
same,"viability, T/C",[7],93%
same,"viability, T/C",[8],96.8%
same,"viability, T/C",[9],103%
same,"viability, T/C",[10],94.8%
same,"viability, T/C",[11],98.6%
same,"viability, T/C",[12],96.5%
same,"viability, T/C",[13],107%
same,"viability, T/C",[14],81%
same,"viability, T/C",[15],95.9%
same,"viability, T/C",[16],95.7%
same,"viability, T/C",[17],109%
same,"viability, T/C",[18],88.2%
same,"viability, T/C",[19],49.1%
same,"viability, T/C",[20],50%
same,"viability, T/C",[21],49.1%
same,"viability, T/C",[22],48.9%
same,"viability, T/C",[23],48.2%
same,"viability, T/C",[24],54.7%
same,"viability, T/C",[25],23.3%
same,"viability, T/C",[26],24.2%
same,"viability, T/C",[27],18.5%
same,"viability, T/C",[28],21.6%
same,"viability, T/C",[29],27.5%
same,"viability, T/C",[30],23.1%
same,"viability, T/C",[31],18.8%
same,"viability, T/C",[32],15.6%
same,"viability, T/C",[33],16.6%
same,"viability, T/C",[34],15.2%
same,"viability, T/C",[35],18.7%
same,"viability, T/C",[36],16.1%
CC1(C)CCC(Nc2ncc(C(F)(F)F)c(-c3c[nH]c4c(P(C)(C)=O)c(C#N)ccc34)n2)CN1 (stereo not given) + COc1c(OCCCN2CCOCC2)ccc2c3n(c(=NC(=O)c4cnc(N)nc4)nc12)CCN3,IC50,second compound 0.00316 µM,3350 nM
same,IC50,second compound 0.01 µM,31.6 nM
same,IC50,second compound 0.0316 µM,1250 nM
same,IC50,second compound 0.1 µM,< 31.6 nM
same,IC50,second compound 0.316 µM,< 31.6 nM
same,IC50,second compound 1 µM,< 31.6 nM
same,"viability, T/C",[1],55.6%
same,"viability, T/C",[2],40.7%
same,"viability, T/C",[3],39%
same,"viability, T/C",[4],49.6%
same,"viability, T/C",[5],78.7%
same,"viability, T/C",[6],6.58%
same,"viability, T/C",[7],45.7%
same,"viability, T/C",[8],48.1%
same,"viability, T/C",[9],41.9%
same,"viability, T/C",[10],56%
same,"viability, T/C",[11],55.7%
same,"viability, T/C",[12],5.22%
same,"viability, T/C",[13],56.8%
same,"viability, T/C",[14],47.4%
same,"viability, T/C",[15],52%
same,"viability, T/C",[16],48.1%
same,"viability, T/C",[17],46.9%
same,"viability, T/C",[18],5.62%
same,"viability, T/C",[19],40.4%
same,"viability, T/C",[20],39.2%
same,"viability, T/C",[21],34.3%
same,"viability, T/C",[22],35.4%
same,"viability, T/C",[23],40.3%
same,"viability, T/C",[24],2.67%
same,"viability, T/C",[25],27.9%
same,"viability, T/C",[26],26.6%
same,"viability, T/C",[27],23.2%
same,"viability, T/C",[28],20.5%
same,"viability, T/C",[29],20.8%
same,"viability, T/C",[30],5.77%
same,"viability, T/C",[31],15.7%
same,"viability, T/C",[32],17.2%
same,"viability, T/C",[33],17.5%
same,"viability, T/C",[34],14.6%
same,"viability, T/C",[35],11.4%
same,"viability, T/C",[36],0.98%
Cn1nccc1Nc1nccc(-c2ccn(C(CO)c3ccc(Cl)c(F)c3)c(=O)c2)n1 (stereo not given) + COc1c(OCCCN2CCOCC2)ccc2c3n(c(=NC(=O)c4cnc(N)nc4)nc12)CCN3,IC50,second compound 0.00316 µM,> 10000 nM
same,IC50,second compound 0.01 µM,> 10000 nM
same,IC50,second compound 0.0316 µM,> 10000 nM
same,IC50,second compound 0.1 µM,< 31.6 nM
same,IC50,second compound 0.316 µM,< 31.6 nM
same,IC50,second compound 1 µM,< 31.6 nM
same,"viability, T/C",[1],95.1%
same,"viability, T/C",[2],93%
same,"viability, T/C",[3],102%
same,"viability, T/C",[4],98.9%
same,"viability, T/C",[5],109%
same,"viability, T/C",[6],111%
same,"viability, T/C",[7],97.5%
same,"viability, T/C",[8],87.7%
same,"viability, T/C",[9],119%
same,"viability, T/C",[10],97.5%
same,"viability, T/C",[11],123%
same,"viability, T/C",[12],104%
same,"viability, T/C",[13],97.7%
same,"viability, T/C",[14],85%
same,"viability, T/C",[15],93.5%
same,"viability, T/C",[16],85.6%
same,"viability, T/C",[17],83.4%
same,"viability, T/C",[18],66%
same,"viability, T/C",[19],49.7%
same,"viability, T/C",[20],44.1%
same,"viability, T/C",[21],55.6%
same,"viability, T/C",[22],43.9%
same,"viability, T/C",[23],40.5%
same,"viability, T/C",[24],42.8%
same,"viability, T/C",[25],20.9%
same,"viability, T/C",[26],18.9%
same,"viability, T/C",[27],18.2%
same,"viability, T/C",[28],19.4%
same,"viability, T/C",[29],15.3%
same,"viability, T/C",[30],14.5%
same,"viability, T/C",[31],14.9%
same,"viability, T/C",[32],15.5%
same,"viability, T/C",[33],11.3%
same,"viability, T/C",[34],9.48%
same,"viability, T/C",[35],8.78%
same,"viability, T/C",[36],7.89%
